Results as given in US11712466B2, “Vaccine composition” (TOHOKU UNIVERSITY, priority 2017, dated 2023).
Entries after “also recorded” stand apart in the source; their conditions may differ. Ends that are not written are not given here.

Tests used:
[1] = tested on: pancreatic cancer cell line (K5); assay: Metastasis inhibitory effect in vivo, K5 injected through tail vein, lung metastatic lesion; set-up: species or system mouse; settings: 100 μg, Alhydrogel, C57BL/6J mice, day 21 after K5 injection; KLH control 2 out of 5 mice with metastasis
Description: 20 μg or 100 μg of KLH (control) and 20 μg or 100 μg of the MTG peptide vaccine were prepared with physiological saline so that the total amount was 100 μL, respectively, whereby KLH-mixed solutions were obtained. To each of the KLH-mixed solutions (100 μL), an equal amount of Alhydrogel (registered trademark) was added. The obtained mixture (200 μL) was intradermally (ID) administered to C57BL/6J male mice (n=5) aged 8 weeks, whereby initial immunization was carried out (0 day). Incidentally, in the intradermal administration, 200 μL was administered at a dose of 100 μL each to two sites. After 2 weeks from the administration (14 days), booster immunization was carried out by subcutaneously administering a mixture of each of the KLH-mixed solutions (100 μL) and an equal amount of Alhydrogel (registered trademark) to the mice. […] Further, at that time point, the blood was collected from each mouse, and the antibody titer of an antibody specific to the antigen peptide or the recombinant human VASH2 protein was measured by ELISA. The mice were sacrificed on day 21 after the injection of K5 (49 days), and the lung metastatic lesion was analyzed (FIG. 10). […]

mCD31 = assay: Gene expression in excised tumor tissue by real-time PCR, mCD31; format: in vivo, mouse; settings: 20 μg vaccine; tumor excised two weeks after implantation
Description: The mouse implanted with the tumor cells in Example 2 was sacrificed two weeks after implantation of the tumor cells, and a tumor was excised from the right axillary subcutaneous region. By using RNeasy Plus Kit (Qiagen, Inc.), extraction of the total RNA from the excised tumor and purification thereof were carried out. By using the obtained total RNA as a template, cDNA was synthesized by reverse transcription reaction. The cDNA was analyzed by performing real-time PCR using a mixed solution of the obtained cDNA and SYBR green (TAKARA BIO, Inc.).

K5 cells = assay: Tumor growth inhibitory effect, subcutaneous implant model of K5 cells; format: in vivo, mouse
Description: 100 μg of KLH (control) or 100 μg of the MTG peptide vaccine was prepared with physiological saline so that the total amount was 100 &L, respectively, whereby KLH-mixed solutions were obtained. To each of the KLH-mixed solutions (100 μL), an equal amount of Alhydrogel (registered trademark) was added. The obtained mixture (200 μL) was intradermally (ID) administered to C57BL/6Jx129SVJ mice aged 8 weeks, whereby initial immunization was carried out (0 day). After 2 weeks from the administration (14 days), booster immunization was carried out. Further, after 2 weeks from the booster immunization (28 days), K5 cells were implanted in each of the mice, whereby a subcutaneous implant model was prepared. In order to confirm that an anti-VASH2 antibody was induced in the mice, the blood was collected at 0 day, 14 day, and 28 day, and the antibody titer was confirmed by ELISA (FIG. 15).

[2] = tested on: Lewis lung cancer cells (LLC); assay: Subcutaneous implant model, tumor growth inhibitory effect (LLC); format: in vivo, mouse; settings: immunized C57BL/6J mice, cells implanted s.c. on day 29, measured 14 days after implantation
Description: After 2 weeks from the administration of each peptide vaccine and incomplete Freund's adjuvant in Example 1 (on day 29 after the initial peptide vaccine administration), mouse-derived tumor cells were implanted in an immunized mouse, whereby a subcutaneous implant model was prepared. Specifically, mouse lung cancer cells (Lewis lung cancer cells (LLC)) or mouse melanoma cells (B16F1) (all have C57BL/6J as a genetic background) cultured in a RPMI+10% FBS medium were collected by centrifugation, and a cell suspension (1.0×10^8 cells/mL) was prepared with a serum-free medium, and 0.1 mL (1.0×10^7 cells/animal) of the cell suspension was implanted in a right axillary subcutaneous region of a mouse using a 27G injection needle and a syringe, whereby a subcutaneous implant model of tumor cells was prepared.

## MTG peptide vaccine: MTG peptide MTGSAADTHR (SEQ ID NO: 4) conjugated with KLH as carrier by a glutaraldehyde method (also: conjugated with KLH by glutaraldehyde)
[1]
  lung metastasis of the pancreatic cancer cells K5: not confirmed in all four individuals
mCD31
  expression of mCD31 (angiogenesis marker) in tumor tissue: expression of mCD31 was inhibited; also recorded: a tendency to inhibit the expression
K5 cells; C57BL/6Jx129SVJ mice n=2, 100 μg, 14 to 40 days after implantation
  tumor size (tumorigenesis), K5 cells, Experiment 1: significant inhibition of tumorigenesis
K5 cells; C57BL/6Jx129SVJ mice n=11, 100 μg, day 15 after implantation, vs KLH p=0.0002
  tumor size (tumorigenesis), K5 cells, Experiment 2: tumorigenesis was significantly inhibited
[2]
  tumor size (tumorigenesis), Lewis lung cancer cells: marked inhibition of tumorigenesis; also recorded: marked inhibition of tumor growth
